Earlier results, collected in patent US8986935B2, “Methods for treating spinal muscular atrophy” (PTC Therapeutics, Inc., priority 2008, dated 2015).

Test system: SMN protein

CC[C@@]1(O)C[C@H](O[C@H]2C[C@H](N(C)C)[C@H](O[C@H]3C[C@H](O)[C@H](O[C@H]4CCC(=O)[C@H](C)O4)[C@H](C)O3)[C@H](C)O2)c2c(cc3c(c2O)C(=O)c2c(O)cccc2C3=O)[C@H]1C(=O)OC [aclarubicin]
SMN protein in cell culture: increase SMN protein
